Laboratory results published in patent publication US6103709A (priority 1998, dated 2000).

Legend:
rapid responses (VDRmem) = assay: Antagonist function (summary classification); details: Yes/No, Tables 1 and 6
Text: (§1) Table 6 identifies biological properties, such as genomic response, rapid response, agonist or antagonist function, binding of the analog to the vitamin binding protein (expressed as RCI), binding to the nuclear 1α,25(OH)2 D3 receptor (expressed as RCI) rapid response (expressed as % transcaltachia the rapid hormonal stimulation of intestinal calcium absorption) the classic vitamin D responses such as intestinal Ca^2+ absorption (ICA) and bone Ca^2+ mobilizing activity (BCM) determined in vivo in a vitamin D-deficient chick, and cell differentiation (expressed as % ED50), an assessment of the ability to promote the nuclear response of cell differentiation.

[1] = system: vitamin D-deficient chick; assay: Bone Ca2+ mobilizing activity (BCM) in vitamin D-deficient chick; type: in vivo; details: i.m.; for Classic Vit D Responses BCM: relative to 100 pmol 1α,25(OH)2 D3 = 100%, 12 h before assay
Protocol: The bone calcium mobilizing (BCM) assay is also conducted in the vitamin D-deficient chick. The BCM assay determines the relative ability of the tested analog to mobilize bone calcium. The natural hormone 1α,25(OH)2 D3 is very potent in the BCM assay. For example, when 1α,25(OH)2 D3 in inappropriate amounts are used as a drug in human patients, the patient may become hypercalcemic and eventually hypercalciuria with nephrolithiasis and renal failure may develop. The BCM assay was used to determine the relative activity of the analogs of the invention to stimulate bone Ca^2+ mobilization.
(§2) Results of the testing of the analogs of the invention in vivo by the ICA and IBM assays are shown in FIG. 9 which illustrates the capability of analogs LO, EV and HR to stimulate intestinal Ca^2+ absorption (ICA) and bone Ca^2+ mobilizing activity (BCM). In this study, the analogs of 1α,25(OH) were given i.m. to vitamin D-deficient chicks 12 hours before the assay began. The activity produced by 100 pmol of 1α,25(OH)2 D3 was set to be 100% for both ICA and BCM. The dose of the analogs required to achieve a biological response for either ICA or BCM equivalent to the 100 pmol dose of 1α,25(OH)2 D3 was calculated and converted to a percentage. Results are expressed as mean +SE of groups of seven chicks. Each assay included a negative control (-D), that is no vitamin D was present, and a positive control, where vitamin D3 (+D3) was present in 3.25 nmol. […] 1α,25(OH)2 D3 and analogs LO [14α,15α-methano-1α,25(OH)2 D3 ], EV [22-(m(dimethylhydroxymethyl)phenyl)-23,24,25,26,27-pentanor-1α-OH-D3 ] and HR [(22R)-1,25(OH)2 -22,23-diene-D3 ] were administered in 0.0065, 0.065, 0.65 and 6.5 nmol as shown.
(§3) In Vivo Assays of Intestinal Calcium Absorption and Bone Calcium Mobilization
(§4) This example describes assays used for determination of analogs biological activity in intestinal calcium absorption (ICA) and bone calcium mobilization (BCM) assays.
(§5) ICA and BCM were measured in vivo in the vitamin D-deficient chick model system according to Biochem. Pharmacol., 18: 2347 (1969).
(§6) Twelve hours before assay, the chickens, which had been placed on a zero-calcium diet 48 h before assay, were injected intramuscularly with the vitamin metabolite 1α,25(OH)2 D3 or analog (1-10,000 pmoles) dissolved in 0.1 mL of ethanol/1,2-propanediol (1:1, v/v). At the time of assay, 4.0 mg of ^40 Ca^2+ +5 μCi of ^45 Ca^2+ (New England Nuclear) were placed in the duodenum of the birds lightly anesthetized with ether. After 30 min, the birds were decapitated and the blood was collected.
BCM activity was estimated from the increase of total serum calcium concentration, as determined by atomic absorption spectrophotometry.

VDRnuc = assay: Genomic response (summary classification); details: Yes/No, Tables 1 and 6
Text: as §1

VDRmem = assay: Rapid response (summary classification); details: Yes/No, Tables 1 and 6
Text: as §1

[2] = system: vitamin D-deficient chick; assay: Intestinal Ca2+ absorption (ICA) in vitamin D-deficient chick; type: in vivo; details: i.m.; for Classic Vit D Responses ICA: relative to 100 pmol 1α,25(OH)2 D3 = 100%, 12 h before assay
Protocol: A primary fundamental physiological property of vitamin D and particularly 1α,25(OH)2 D3 is its ability to stimulate the intestinal absorption of calcium and facilitate the availability of dietary calcium to the organism. Intestinal absorption of the calcium is measured by the intestinal calcium absorption (ICA) assay, developed in the model of vitamin-D deficient chicks. The ICA assay was used to determine the relative capability of the tested analog to stimulate intestinal Ca^2+ absorption.
as §2, §3, §4, §5, §6
The radioactivity content, which is a measure of ICA, of 0.2 mL of serum was measured in a liquid scintillation counter (Beckman LS8000) to determine the amount of ^45 Ca^2+ absorbed.

[3] = target: T1, human vitamin D-binding protein (hDBP) (Homo sapiens, UniProt P02774); assay: Relative Competitive Index assay, vitamin D-binding protein; details: RCI of 1α,25(OH)2 D3 set to 100; 4° C., pH 7.4
T1 sequence (P02774 17-474): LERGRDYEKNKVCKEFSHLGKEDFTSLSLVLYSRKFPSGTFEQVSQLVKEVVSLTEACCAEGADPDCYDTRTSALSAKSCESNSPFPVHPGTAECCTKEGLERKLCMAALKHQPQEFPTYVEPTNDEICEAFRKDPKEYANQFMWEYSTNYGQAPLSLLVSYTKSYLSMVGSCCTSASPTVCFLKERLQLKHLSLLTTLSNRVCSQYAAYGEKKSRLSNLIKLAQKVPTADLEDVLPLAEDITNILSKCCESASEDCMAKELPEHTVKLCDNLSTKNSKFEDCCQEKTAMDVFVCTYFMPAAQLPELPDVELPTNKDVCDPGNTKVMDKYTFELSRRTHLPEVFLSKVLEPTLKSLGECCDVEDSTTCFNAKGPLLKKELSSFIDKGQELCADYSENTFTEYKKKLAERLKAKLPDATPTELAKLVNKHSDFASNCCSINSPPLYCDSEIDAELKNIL
Text: The compared analogs are 14α,15α-methano-1α,25(OH)2 D3 (LO), 22(m(dimethylhydroxymethyl)phenyl)-23,24,25,26,27-pentanor-1α- OH-D3 (EV) and (22R)-1,25(OH)2 -22,23,diene-D3 (HR), all conformationally flexible genomic agonists. By definition the RCI for 1α,25(OH)2 D3 is set to 100%. The data seen in FIG. 7 represent the mean of three determinations.
Vitamin D-Binding Protein Assay Relative Competitive Index
This example describes a Relative Competitive Index Assay used for determination of analogs binding affinity to vitamin D-binding protein.
Phase separation was then obtained by the addition of 0.5 ml of cold dextran-coated charcoal.
The data was plotted as [competitor]/[[^3 H]25(OH)D3 ] vs. 1/[fraction bound]. The RCI was calculated as [slope of competitor]/[slopefor 25(OH)D3 ]×100. Results are seen in FIG. 7. Although each analog was assayed in competition with [^3 H]25(OH)D3, the data are expressed as relative to the binding of 1α,25(OH)2 D3, with its RCI set to 100.

SMILES | Antagonist (rapid responses (VDRmem)) | Classic Vit D Responses BCM [1] [%] | Genomic Response (VDRnuc) | Rapid Response (VDRmem) | Classic Vit D Responses ICA [2] [%] | Vit D Binding Protein (RCI) [3] | BCM (in words) ([1]; vitamin D-deficient chick) | ICA (in words) ([2]; vitamin D-deficient chick)
C=C1/C(=C\C=C2/CCC[C@]3(C)[C@@H]([C@H](C)CCCC(C)(C)O)CC[C@@H]23)C[C@H](O)C[C@@H]1O [HJ] | No | 1.5 | Yes | Yes | 2.8 | – | – | –
C=C1/C(=C\C=C2\CCC[C@]3(C)[C@@H]([C@H](C)CCCC(C)(C)O)CC[C@@H]23)C[C@@H](O)C[C@@H]1O [JR] | No | 0.02 | Yes | Yes | 0.03 | – | – | –
C=C1/C(=C\C=C2/CCC[C@]3(C)[C@@H]([C@H](C)CCCC(C)(C)O)CC[C@@H]23)C[C@H](O)C[C@H]1O [HH] | Yes | – | No | No | – | – | – | –
C=C1/C(=C/C=C2/CCC[C@]3(C)[C@@H]([C@H](C)CCCC(C)(C)O)CC[C@@H]23)C[C@@H](O)C[C@@H]1O [JS] | No | < 0.02 | Yes | Yes | < 0.02 | – | – | –
C=C1/C(=C\C=C2/CCC[C@@]3(C)[C@@H]2CC[C@@H]3[C@H](C)CCCC(C)(C)O)C[C@@H](O)C[C@@H]1O [GE] | No | < 0.1 | Yes | Yes | 0.5 | – | – | –
C=C1CC[C@H](O)C/C1=C/C=C1\CCC[C@]2(C)[C@@H]([C@H](C)CCCC(C)(C)O)CC[C@@H]12 [25(OH)D3, 25-hydroxyvitamin D3, reference compound] | – | – | – | – | – | 66,700 | – | –
C=C1CC[C@H](O)C/C1=C/C=C1\CCC[C@]2(C)[C@@H]([C@H](C)CCCC(C)C)CC[C@@H]12 [vitamin D3, 9,10-secocholesta-5,7,10(19)-trien-3β-ol, reference compound] | – | – | – | – | – | – | significant at P<0.01 | significant at P<0.01
